Reference: publication PMC13347698 (Analytical Chemistry, 2026)
Values joined by “and” are separate entries in the source; they are usually repeats but may differ in a detail not shown here. Identical values can stand only once.

Assays:
SARS-CoV-2 3CL^pro = conditions: cited from earlier work
[1] = molecular target: T1, native SARS-CoV-2 3CL^pro (Severe acute respiratory syndrome coronavirus 2, UniProt P0DTD1); assay: biochemical; type: biochemical
wild-type 3CL^pro = wild-type 3CL^pro (Severe acute respiratory syndrome coronavirus 2, UniProt P0DTD1); assay: biochemical; type: binding, SARS-CoV-2; conditions: K D (wt)
SARS-CoV 3CL^pro = conditions: cited from earlier work
[2] = molecular target: T1, native SARS-CoV-2 3CL^pro; type: biochemical

SMILES	IC50 (SARS-CoV-2 3CL^pro)	Ki [1]	Kd (wild-type 3CL^pro)	IC50 (SARS-CoV 3CL^pro)	inhibition mode [1]	α parameter [1]	binding kinetics (fast or slow-binding) [2]	covalent or noncovalent inhibition [2]	reduction of reaction rate vi with respect to v0 [2]	reduction of thermal power minimum with respect to the noninhibited reaction [2]	tight or nontight binding [2]
O=C(Nc1ccc(N(Cc2ccsc2)C(=O)Cn2nnc3ccccc32)cc1)C1CC1 [ML300]	low micromolar range	6.2 ± 0.4 µM	7.5 µM and 3.6 µM	–	–	–	–	–	–	–	–
CC(C)(C)c1ccc(N(C(=O)c2c[nH]cn2)[C@@H](C(=O)NC2CCCCC2)c2cccnc2)cc1 [X77]	–	–	–	3.4 µM	predominantly competitive	16 ± 3	fast	noncovalent	ca. 70%	ca. 40%	nontight
